# Laboratory results taken from ChEMBL document CHEMBL1201862, “PubChem BioAssay data set” (2004).
#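 These data come from cells grown in 96-well plates and exposed to compound for 48 hours at five concentrations. GI50: concentration for 50% inhibition of growth.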 The source made the active and inactive calls. No stated cut-off is given here; in the data, active = GI50 up to about 1.1 µM and inactive = higher.
# Tests used:
# Assay in all cases: NCI tumour cell line growth inhibition, 48 h
# LXFL 529 = system: LXFL 529
# XF498 = system: XF498
# DLD-1 = system: DLD-1
# KM-20L2 = system: KM-20L2
# HOP-18 = system: HOP-18
# RXF 631 = system: RXF 631
# DMS-114 = system: DMS-114
# DMS-273 = system: DMS-273
# SNB-78 = system: SNB-78
Structure (SMILES),GI50 (LXFL 529),GI50 (XF498),GI50 (DLD-1),GI50 (KM-20L2),GI50 (HOP-18),GI50 (RXF 631),GI50 (DMS-114),GI50 (DMS-273),GI50 (SNB-78)
C=CCCCn1ccc2ccccc21,> 100 µM (inactive),> 100 µM (inactive),> 100 µM (inactive),> 100 µM (inactive),> 100 µM (inactive),> 100 µM (inactive),> 100 µM (inactive),,
CC12C3CC4C5CC(C(C53)[C@@H]1NCc1ccccc1)C42 (stereo not given in full),> 100 µM (inactive),> 100 µM (inactive),> 100 µM (inactive),23.2 µM (inactive),> 100 µM (inactive),84.3 µM (inactive),> 100 µM (inactive),> 100 µM (inactive),> 100 µM (inactive)
CCOC(=O)CC[C@@H](NC(=O)c1ccc(N[C@@H]2c3cc4c(cc3C(c3cc(OC)c(O)c(OC)c3)C3C(=O)OC[C@@H]32)OCO4)cc1)C(=O)OCC (stereo not given in full),7.23 µM (inactive),,0.123 µM (active),0.0404 µM (active),0.249 µM (active),,,0.00566 µM (active),0.859 µM (active)
CCCCCCCCCCC(O)C1CCC(C(O)CCC(O)C2CCC(CCCCCCC[C@H](O)CC3=C[C@@H](C)OC3=O)O2)O1 (stereo not given in full),14.6 µM (inactive),28.2 µM (inactive),54.8 µM (inactive),> 100 µM (inactive),> 100 µM (inactive),> 46.2 µM (inactive),,41.6 µM (inactive),14.9 µM (inactive)
Cn1nc(-c2cccc(-c3nn(C)/c(=N\CCO)s3)n2)s/c1=N/CCO,> 100 µM (inactive),,> 100 µM (inactive),> 100 µM (inactive),> 100 µM (inactive),,> 100 µM (inactive),> 100 µM (inactive),41.6 µM (inactive)
COc1ccc(/N=c2\ssc3c(=S)ssc23)cc1,14.8 µM (inactive),,15.5 µM (inactive),,,,0.959 µM (active),26.4 µM (inactive),34.2 µM (inactive)
Oc1cccc(-c2cccc(O)n2)n1,> 100 µM (inactive),,> 100 µM (inactive),,> 100 µM (inactive),> 100 µM (inactive),> 100 µM (inactive),> 100 µM (inactive),> 100 µM (inactive)
COC1=NN2C(OC)(c3ccccc3)c3c(-c4ccccc4)sc(-c4ccccc4)c3C2(c2ccccc2)S1 (stereo not given),> 100 µM (inactive),> 100 µM (inactive),> 100 µM (inactive),,,> 100 µM (inactive),,> 100 µM (inactive),> 100 µM (inactive)
CCCCCCCCOCC(O)CO (stereo not given),> 100 µM (inactive),45.9 µM (inactive),> 100 µM (inactive),> 100 µM (inactive),> 100 µM (inactive),> 100 µM (inactive),> 100 µM (inactive),> 100 µM (inactive),> 100 µM (inactive)
COc1cc2cnc3c4cc(OC)c(OC(C)C)cc4ccc3c2cc1OC,> 100 µM (inactive),,> 100 µM (inactive),> 100 µM (inactive),> 100 µM (inactive),> 100 µM (inactive),> 100 µM (inactive),> 100 µM (inactive),> 100 µM (inactive)
O=C(CC(O)(c1ccccc1)c1ccc(Cl)cc1)NC(=O)c1ccccc1O (stereo not given),4.35 µM (inactive),,11.8 µM (inactive),14.8 µM (inactive),2.39 µM (inactive),15.6 µM (inactive),6.04 µM (inactive),13.2 µM (inactive),27.1 µM (inactive)
O=c1c(Cl)c(Cl)cnn1CCc1ccncc1,15.8 µM (inactive),15.5 µM (inactive),14.6 µM (inactive),18.9 µM (inactive),20 µM (inactive),,14 µM (inactive),18.6 µM (inactive),25.1 µM (inactive)
COC(=O)n1c(CBr)c(Br)c2ccccc21,,,41.5 µM (inactive),> 100 µM (inactive),,,36.7 µM (inactive),46.2 µM (inactive),
CCCCCCCCCCCCCCCCCC(=O)OCC(C[As](=O)(O)O)OC(=O)CCCCCCCCCCCCCCCCC (stereo not given),72.9 µM (inactive),23 µM (inactive),40 µM (inactive),> 100 µM (inactive),> 100 µM (inactive),36.1 µM (inactive),17.6 µM (inactive),65.3 µM (inactive),20.4 µM (inactive)
Cc1ccc(NC(=O)/C(=N/NC(=O)CC#N)C2C(=O)N(c3ccccc3)N=C2N)cc1C (stereo not given),> 100 µM (inactive),> 100 µM (inactive),> 100 µM (inactive),> 100 µM (inactive),> 100 µM (inactive),,> 100 µM (inactive),> 100 µM (inactive),> 100 µM (inactive)
C/C(=N/NS(=O)(=O)c1ccccc1)c1cccc[n+]1[O-],> 100 µM (inactive),> 100 µM (inactive),> 100 µM (inactive),> 100 µM (inactive),> 100 µM (inactive),> 100 µM (inactive),> 100 µM (inactive),> 100 µM (inactive),> 100 µM (inactive)
CC(=O)OC1(Sc2ccccc2)CC2[C@H]3COC(C)(C)O[C@H]3CC[C@@]2(C)CC1=O (stereo not given in full),34.2 µM (inactive),19.2 µM (inactive),65.2 µM (inactive),37.5 µM (inactive),,14.4 µM (inactive),27 µM (inactive),39.6 µM (inactive),> 100 µM (inactive)
CC1O[C@@H]2CCCCC(=O)[C@]2(C)[C@H]1C (stereo not given in full),> 100 µM (inactive),> 100 µM (inactive),> 100 µM (inactive),> 100 µM (inactive),> 100 µM (inactive),> 100 µM (inactive),> 100 µM (inactive),> 100 µM (inactive),> 100 µM (inactive)
